Laboratory results published in article PMC10879502, “Linking ATP and allosteric sites to achieve superadditive binding with bivalent EGFR kinase inhibitors” (Communications Chemistry, 2024).

Assays:
[1] = molecular target: PIP5K2C (Homo sapiens, UniProt Q8TBX8); experiment: KINOMEscan; type: binding; conditions: 1 μM
[2] = molecular target: RIOK2 (Homo sapiens, UniProt Q9BVS4); experiment: KINOMEscan; type: binding; conditions: 1 μM
[3] = molecular target: PIK3CG (Homo sapiens, UniProt P48736); experiment: KINOMEscan; type: binding; conditions: 1 μM
[4] = molecular target: PDGFRB (Homo sapiens, UniProt P09619); experiment: KINOMEscan; type: binding; conditions: 1 μM
[5] = test system: HCC827 cells (exon 19 del); experiment: MTT antiproliferative activity assay; type: cell-based, human
Procedure: (§1) Cells were dosed with inhibitors to a final DMSO 0.5% in triplicate for 37 °C for 72 h. Cellular inhibition of growth was assessed by MTT viability assay according to the manufactures protocol (OZ Biosciences). […] Ba/F3 cells were all cultured in RPMI1640 media with 10% fetal bovine serum and 1% penicillin and streptomycin. The Ba/F3 cell lines were tested negative for Mycoplasma using Mycoplasma Plus PCR Primer Set (Agilent) and were passaged and/or used for no longer than 4 weeks for all experiments. Assay reagents were purchased from MilliporeSigma (Cat# R7017-5G). Ba/F3 cells were plated and treated with increasing concentrations of inhibitors in triplicate for 72 h. Compounds were dispensed using the Tecan D300e Digital Dispenser. […] All experiments were repeated at least 3 times and values were reported as an average with standard deviation.

[6] = test system: H1975 cells (L858R/T790M); experiment: MTT antiproliferative activity assay; type: cell-based, human
Procedure: as §1

[7] = molecular target: T1, TSSK3 (Homo sapiens, UniProt Q96PN8); experiment: KINOMEscan; type: binding; conditions: 1 μM
T1 construct: purchased Eurofins DiscoverX Corporation

[8] = Metabolic stability in human liver microsomes; type: in vitro ADME; conditions: up to 120 min
Procedure: Pooled liver microsomes from humans (male) were purchased from Sekisui XenoTech, LLC, Kansas City, KS, USA. Metabolic stability assays were performed in the presence of an NADPH-regenerating system consisting of 5 mM glucose-6-phosphate, 5 U/mL glucose-6-phosphate dehydrogenase, and 1 mM NADP^+. Liver microsomes (20 mg/mL), NADPH-regenerating system, and 4 mM MgCl2·6 H2O in 0.1 M TRIS-HCl-buffer (pH 7.4) were preincubated for 5 min at 37 °C and 750 rpm on a shaker. The reaction was started by adding the preheated compound at 10 mM resulting in a final concentration of 0.1 mM. The reaction was quenched at selected time points (0, 10, 20, 30, 60, and 120 min) by pipetting 100 μL of internal standard (ketoprofen) at a concentration of 150 μM in acetonitrile. The samples were vortexed for 30 s and centrifuged (21910 relative centrifugal force, 4 °C, 20 min). The supernatant was used directly for LC-MS analysis. All compound incubations were conducted at least in triplicates. Additionally, a negative control containing BSA (20 mg/mL) instead of liver microsomes and a positive control using verapamil instead of compound were performed. A limit of 1% organic solvent during incubation was not exceeded. […]

[9] = molecular target: T2, BRK (Homo sapiens, UniProt Q13882); experiment: KINOMEscan; type: binding; conditions: 1 μM
T2 construct: purchased Eurofins DiscoverX Corporation (KINOMEscan)

[10] = molecular target: RPS6KA4(Kin.Dom.1-N-terminal) (Homo sapiens, UniProt O75676); experiment: KINOMEscan; type: binding; conditions: 1 μM
[11] = molecular target: SGK3 (Homo sapiens, UniProt Q96BR1); experiment: KINOMEscan; type: binding; conditions: 1 μM
[12] = molecular target: T3, CAMK1B (Homo sapiens, UniProt Q6P2M8); experiment: KINOMEscan; type: binding; conditions: 1 μM
T3 construct: purchased Eurofins DiscoverX Corporation (KINOMEscan)

[13] = molecular target: CDK8 (Homo sapiens, UniProt P49336); experiment: KINOMEscan; type: binding; conditions: 1 μM
[14] = molecular target: T4, TNK2 (Homo sapiens, UniProt Q07912); experiment: KINOMEscan; type: binding; conditions: 1 μM
T4 construct: purchased Eurofins DiscoverX Corporation

[15] = molecular target: PLK1 (Homo sapiens, UniProt P53350); experiment: KINOMEscan; type: binding; conditions: 1 μM
[16] = molecular target: NLK (Homo sapiens, UniProt Q9UBE8); experiment: KINOMEscan; type: binding; conditions: 1 μM
[17] = molecular target: RSK4(Kin.Dom.2-C-terminal) (Homo sapiens, UniProt Q9UK32); experiment: KINOMEscan; type: binding; conditions: 1 μM
[18] = molecular target: EGFR(L858R+T790M) (Homo sapiens, UniProt P00533, L858R/T790M); experiment: KINOMEscan; type: binding; conditions: 1 μM
[19] = molecular target: PKNB(M.tuberculosis) (Mycobacterium tuberculosis, UniProt P9WI81); experiment: KINOMEscan; type: binding; conditions: 1 μM
[20] = molecular target: PIK3CD (Homo sapiens, UniProt O00329); experiment: KINOMEscan; type: binding; conditions: 1 μM
[21] = molecular target: PRKD1 (Homo sapiens, UniProt Q15139); experiment: KINOMEscan; type: binding; conditions: 1 μM
[22] = molecular target: CDK7 (Homo sapiens, UniProt P50613); experiment: KINOMEscan; type: binding; conditions: 1 μM
[23] = molecular target: T5, MLCK (Homo sapiens, UniProt Q32MK0); experiment: KINOMEscan; type: binding; conditions: 1 μM
T5 construct: purchased Eurofins DiscoverX Corporation

Sequence of RSK4(Kin.Dom.2-C-terminal) (Q9UK32 426-683 limits assumed): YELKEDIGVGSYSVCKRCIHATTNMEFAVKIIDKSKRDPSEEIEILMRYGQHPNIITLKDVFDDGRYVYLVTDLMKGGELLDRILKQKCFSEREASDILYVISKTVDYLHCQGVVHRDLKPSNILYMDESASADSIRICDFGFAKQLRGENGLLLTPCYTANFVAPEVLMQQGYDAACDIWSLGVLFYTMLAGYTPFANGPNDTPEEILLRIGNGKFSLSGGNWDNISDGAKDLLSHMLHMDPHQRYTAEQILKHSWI
Sequence of SGK3 (Q96BR1 whole entry): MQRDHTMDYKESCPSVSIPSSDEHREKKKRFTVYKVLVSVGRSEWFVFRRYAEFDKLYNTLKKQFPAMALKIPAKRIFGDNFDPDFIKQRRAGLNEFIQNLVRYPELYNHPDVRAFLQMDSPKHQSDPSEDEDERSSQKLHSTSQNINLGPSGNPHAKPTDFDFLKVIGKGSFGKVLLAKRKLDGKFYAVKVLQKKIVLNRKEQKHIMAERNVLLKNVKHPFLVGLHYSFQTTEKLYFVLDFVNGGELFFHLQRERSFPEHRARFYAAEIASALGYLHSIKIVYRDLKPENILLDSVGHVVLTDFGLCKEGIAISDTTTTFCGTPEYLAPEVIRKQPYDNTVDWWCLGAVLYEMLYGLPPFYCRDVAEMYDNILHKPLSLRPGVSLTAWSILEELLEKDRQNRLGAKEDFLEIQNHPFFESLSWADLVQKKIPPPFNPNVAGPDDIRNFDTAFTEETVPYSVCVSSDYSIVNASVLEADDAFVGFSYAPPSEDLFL
Sequence of NLK (Q9UBE8 whole entry): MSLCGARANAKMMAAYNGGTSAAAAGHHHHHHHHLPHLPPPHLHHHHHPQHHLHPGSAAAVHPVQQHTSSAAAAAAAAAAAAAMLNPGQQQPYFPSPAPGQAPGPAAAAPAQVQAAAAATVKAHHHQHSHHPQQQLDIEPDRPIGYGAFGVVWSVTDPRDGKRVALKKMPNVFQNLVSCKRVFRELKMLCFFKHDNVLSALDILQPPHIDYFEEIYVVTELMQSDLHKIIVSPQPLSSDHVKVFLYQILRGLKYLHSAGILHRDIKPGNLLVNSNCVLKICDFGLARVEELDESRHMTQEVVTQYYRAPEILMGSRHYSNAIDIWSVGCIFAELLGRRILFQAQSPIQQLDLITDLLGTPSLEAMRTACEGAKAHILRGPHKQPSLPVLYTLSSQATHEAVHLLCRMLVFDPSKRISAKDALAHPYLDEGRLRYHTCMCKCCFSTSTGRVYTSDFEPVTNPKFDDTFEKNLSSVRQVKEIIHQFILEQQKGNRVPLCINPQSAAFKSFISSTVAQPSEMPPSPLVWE
T4 sequence (Q07912 whole entry): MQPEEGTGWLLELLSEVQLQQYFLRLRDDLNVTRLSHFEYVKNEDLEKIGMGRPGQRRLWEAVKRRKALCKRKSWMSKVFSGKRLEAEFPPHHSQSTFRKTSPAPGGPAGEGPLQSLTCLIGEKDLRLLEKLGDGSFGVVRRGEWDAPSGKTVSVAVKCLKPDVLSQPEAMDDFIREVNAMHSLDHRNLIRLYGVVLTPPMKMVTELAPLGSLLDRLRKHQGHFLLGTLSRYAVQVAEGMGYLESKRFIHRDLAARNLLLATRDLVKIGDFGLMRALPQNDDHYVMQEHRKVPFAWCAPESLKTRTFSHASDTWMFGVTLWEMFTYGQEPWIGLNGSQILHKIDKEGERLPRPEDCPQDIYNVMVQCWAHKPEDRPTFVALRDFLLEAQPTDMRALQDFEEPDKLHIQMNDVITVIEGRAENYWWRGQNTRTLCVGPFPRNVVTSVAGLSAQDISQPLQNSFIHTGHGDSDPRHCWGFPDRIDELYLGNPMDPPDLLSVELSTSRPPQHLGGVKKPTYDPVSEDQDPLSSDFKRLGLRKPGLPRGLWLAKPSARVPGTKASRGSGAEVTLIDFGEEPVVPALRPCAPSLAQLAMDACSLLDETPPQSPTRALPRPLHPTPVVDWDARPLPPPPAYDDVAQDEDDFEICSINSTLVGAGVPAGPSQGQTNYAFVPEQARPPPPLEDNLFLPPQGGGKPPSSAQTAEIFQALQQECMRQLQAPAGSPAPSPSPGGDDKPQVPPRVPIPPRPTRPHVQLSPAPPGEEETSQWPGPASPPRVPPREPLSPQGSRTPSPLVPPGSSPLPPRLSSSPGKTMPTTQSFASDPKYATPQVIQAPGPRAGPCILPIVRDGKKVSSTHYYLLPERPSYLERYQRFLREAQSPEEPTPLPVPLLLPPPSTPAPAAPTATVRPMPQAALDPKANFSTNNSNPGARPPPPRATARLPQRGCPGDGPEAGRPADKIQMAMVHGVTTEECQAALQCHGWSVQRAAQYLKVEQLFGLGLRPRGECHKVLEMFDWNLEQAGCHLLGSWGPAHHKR
Sequence of PIK3CD (O00329 whole entry): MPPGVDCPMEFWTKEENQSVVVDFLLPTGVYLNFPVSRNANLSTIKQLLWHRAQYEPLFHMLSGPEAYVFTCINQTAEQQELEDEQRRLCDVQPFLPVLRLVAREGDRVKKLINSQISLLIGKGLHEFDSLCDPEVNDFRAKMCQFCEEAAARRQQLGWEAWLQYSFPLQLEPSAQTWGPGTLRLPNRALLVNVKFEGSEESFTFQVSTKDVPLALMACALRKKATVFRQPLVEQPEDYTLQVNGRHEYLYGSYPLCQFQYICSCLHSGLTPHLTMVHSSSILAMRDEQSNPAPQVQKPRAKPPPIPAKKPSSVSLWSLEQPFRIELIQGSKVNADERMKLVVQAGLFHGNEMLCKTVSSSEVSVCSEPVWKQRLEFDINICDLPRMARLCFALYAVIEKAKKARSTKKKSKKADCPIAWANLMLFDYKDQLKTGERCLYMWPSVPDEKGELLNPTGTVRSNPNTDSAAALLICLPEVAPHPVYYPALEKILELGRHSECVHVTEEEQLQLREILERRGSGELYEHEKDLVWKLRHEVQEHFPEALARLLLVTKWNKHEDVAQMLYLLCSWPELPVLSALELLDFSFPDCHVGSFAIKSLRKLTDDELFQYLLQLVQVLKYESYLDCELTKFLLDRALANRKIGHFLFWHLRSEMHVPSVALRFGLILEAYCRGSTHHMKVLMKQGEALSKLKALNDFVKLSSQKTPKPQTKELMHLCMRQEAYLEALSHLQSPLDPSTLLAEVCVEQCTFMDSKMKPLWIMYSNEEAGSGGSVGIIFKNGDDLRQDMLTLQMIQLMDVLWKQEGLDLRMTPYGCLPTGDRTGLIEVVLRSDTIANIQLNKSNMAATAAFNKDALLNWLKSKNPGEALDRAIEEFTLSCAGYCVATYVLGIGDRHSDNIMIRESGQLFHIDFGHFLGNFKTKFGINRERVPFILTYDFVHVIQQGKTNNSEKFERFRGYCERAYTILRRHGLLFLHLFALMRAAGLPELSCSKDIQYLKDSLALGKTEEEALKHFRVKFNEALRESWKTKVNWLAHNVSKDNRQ
Sequence of CDK8 (P49336 whole entry): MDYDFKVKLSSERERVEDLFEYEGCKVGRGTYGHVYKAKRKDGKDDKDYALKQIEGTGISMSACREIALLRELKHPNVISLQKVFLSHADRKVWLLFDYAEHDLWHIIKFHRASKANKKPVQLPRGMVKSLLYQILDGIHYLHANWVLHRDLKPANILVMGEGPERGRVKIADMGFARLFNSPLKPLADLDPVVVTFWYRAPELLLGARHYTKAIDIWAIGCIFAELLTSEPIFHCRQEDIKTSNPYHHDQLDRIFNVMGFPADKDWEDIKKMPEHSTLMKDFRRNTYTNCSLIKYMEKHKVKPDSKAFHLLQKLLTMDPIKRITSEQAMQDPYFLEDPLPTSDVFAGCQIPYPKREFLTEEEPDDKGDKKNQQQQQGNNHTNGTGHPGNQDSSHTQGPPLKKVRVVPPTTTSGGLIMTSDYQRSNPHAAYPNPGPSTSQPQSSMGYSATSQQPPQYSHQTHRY
Sequence of PIP5K2C (Q8TBX8 whole entry): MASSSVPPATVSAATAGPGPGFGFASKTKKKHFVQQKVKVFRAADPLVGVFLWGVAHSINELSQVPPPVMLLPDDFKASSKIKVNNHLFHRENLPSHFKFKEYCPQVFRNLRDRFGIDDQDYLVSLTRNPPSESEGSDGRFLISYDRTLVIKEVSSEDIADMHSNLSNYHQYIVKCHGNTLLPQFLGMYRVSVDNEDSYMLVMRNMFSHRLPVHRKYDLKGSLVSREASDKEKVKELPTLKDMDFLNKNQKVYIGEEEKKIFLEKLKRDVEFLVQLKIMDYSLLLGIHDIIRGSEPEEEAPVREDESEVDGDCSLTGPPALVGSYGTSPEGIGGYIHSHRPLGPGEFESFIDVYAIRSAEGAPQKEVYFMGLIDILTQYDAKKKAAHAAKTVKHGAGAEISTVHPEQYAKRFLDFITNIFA
Sequence of CDK7 (P50613 whole entry): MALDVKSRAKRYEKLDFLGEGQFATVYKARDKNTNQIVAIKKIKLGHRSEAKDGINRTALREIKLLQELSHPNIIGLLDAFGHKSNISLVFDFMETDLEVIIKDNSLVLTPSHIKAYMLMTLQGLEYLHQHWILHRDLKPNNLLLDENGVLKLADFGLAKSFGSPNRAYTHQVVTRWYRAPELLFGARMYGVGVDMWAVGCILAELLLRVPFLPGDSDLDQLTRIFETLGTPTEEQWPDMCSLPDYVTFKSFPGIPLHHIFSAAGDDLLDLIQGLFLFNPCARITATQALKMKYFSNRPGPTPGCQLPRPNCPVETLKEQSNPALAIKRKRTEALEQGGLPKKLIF
T3 sequence (Q6P2M8 whole entry): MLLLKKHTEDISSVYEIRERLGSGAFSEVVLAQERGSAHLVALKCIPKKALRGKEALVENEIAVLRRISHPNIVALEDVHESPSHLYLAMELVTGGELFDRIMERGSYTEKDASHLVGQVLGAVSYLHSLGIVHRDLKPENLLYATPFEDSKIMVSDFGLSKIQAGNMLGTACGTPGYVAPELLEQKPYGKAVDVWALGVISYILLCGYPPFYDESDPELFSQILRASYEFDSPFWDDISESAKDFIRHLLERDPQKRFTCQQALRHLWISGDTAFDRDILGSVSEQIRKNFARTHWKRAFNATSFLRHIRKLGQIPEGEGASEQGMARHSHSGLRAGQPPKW

C=CC(=O)Nc1ccc(OC)c(Nc2cc(-c3[nH]c(CC)nc3-c3cccc(NC(=O)c4cccc5c4NC(=O)c4ccccc4N5)c3)ccn2)c1 [Compound 4]
POC [1]: 66% of control | POC [2]: 83% of control | POC [3]: 65% of control | POC [4]: 100% of control | less potent than AZD9291 ([5]; HCC827): ~ 60 fold | antiproliferative active concentration ([5]; HCC827, text): 100 to 500 nM | less potent than AZD9291 ([6]; H1975): ~ 60 fold | antiproliferative active concentration ([6]; H1975, text): 100 to 500 nM | POC [7]: 100% of control | metabolic stability in liver microsomes [8]: metabolically stable | POC [9]: 96% of control | POC [10]: 96% of control | POC [11]: 90% of control | POC [12]: 94% of control | POC [13]: 81% of control | POC [14]: 3.8% of control | POC [15]: 50% of control | POC [16]: 48% of control | POC [17]: 80% of control | POC [18]: 8.3% of control | POC [19]: 97% of control | POC [20]: 71% of control | POC [21]: 42% of control | POC [22]: 49% of control | POC [23]: 86% of control
